From article PMC10088252
Read-outs that look alike come from different tables or passages of the source.

O=C(Nc1ccc(Oc2ccnc3c2CCN3)c(F)c1)c1c[nH]cc(-c2ccc(F)cc2)c1=O
2 (16.7) n (%): TRAE Asthenia, any grade (450 mg QD (n=12)) | TRAE Decreased Ccr, any grade (450 mg QD (n=12)) | TRAE Decreased appetite, any grade (450 mg QD (n=12)) | TRAE Dry mouth, any grade (450 mg QD (n=12)) | TRAE Elevated blood creatinine, any grade (450 mg QD (n=12))
5 (41.7) n (%): TRAE Constipation, any grade (450 mg QD (n=12)) | TRAE Elevated ALT, any grade (450 mg QD (n=12)) | TRAE Elevated AST, any grade (450 mg QD (n=12))
0 n (%): TRAE Dyskinesia, any grade (400 mg BID (n=4)) | TRAE Dyskinesia, grade 3-4 (400 mg BID (n=4)) | TRAE Dysphonia, any grade (400 mg BID (n=4)) | TRAE Dysphonia, grade 3-4 (400 mg BID (n=4)) | TRAE Dyspnoea, any grade (400 mg BID (n=4)) | TRAE Dyspnoea, grade 3-4 (400 mg BID (n=4)) | TRAE Electrocardiogram QT prolonged, any grade (400 mg BID (n=4)) | TRAE Electrocardiogram QT prolonged, grade 3-4 (400 mg BID (n=4)) | TRAE Elevated ALT, grade 3-4 (400 mg BID (n=4)) | TRAE Elevated AST, grade 3-4 (400 mg BID (n=4)) | TRAE Elevated D dimer, any grade (400 mg BID (n=4)) | TRAE Elevated D dimer, grade 3-4 (400 mg BID (n=4)) | TRAE Elevated GGT, grade 3-4 (400 mg BID (n=4)) | TRAE Elevated LDH, grade 3-4 (400 mg BID (n=4)) | TRAE Elevated alpha-HBDH, grade 3-4 (400 mg BID (n=4)) | TRAE Elevated bilirubin, grade 3-4 (400 mg BID (n=4)) | TRAE Elevated blood creatinine, grade 3-4 (400 mg BID (n=4)) | TRAE Elevated creatine phosphokinase, grade 3-4 (400 mg BID (n=4)) | TRAE Elevated serum urea, any grade (400 mg BID (n=4)) | TRAE Elevated serum urea, grade 3-4 (400 mg BID (n=4)) | TRAE Elevated troponin, any grade (400 mg BID (n=4)) | TRAE Elevated troponin, grade 3-4 (400 mg BID (n=4)) | TRAE Genital rash, any grade (400 mg BID (n=4)) | TRAE Genital rash, grade 3-4 (400 mg BID (n=4)) | TRAE Haematuria, any grade (400 mg BID (n=4)) | TRAE Haematuria, grade 3-4 (400 mg BID (n=4)) | TRAE Headache, any grade (400 mg BID (n=4)) | TRAE Headache, grade 3-4 (400 mg BID (n=4)) | TRAE Hyperhidrosis, any grade (400 mg BID (n=4)) | TRAE Hyperhidrosis, grade 3-4 (400 mg BID (n=4)) | TRAE Hyperlipidaemia, grade 3-4 (400 mg BID (n=4)) | TRAE Hypertension, grade 3-4 (400 mg BID (n=4)) | TRAE Hypoaesthesia oral, any grade (400 mg BID (n=4)) | TRAE Hypoaesthesia oral, grade 3-4 (400 mg BID (n=4)) | TRAE Hypocalcaemia, any grade (400 mg BID (n=4)) | TRAE Hypocalcaemia, grade 3-4 (400 mg BID (n=4)) | TRAE Hypotension, any grade (400 mg BID (n=4)) | TRAE Hypotension, grade 3-4 (400 mg BID (n=4)) | TRAE Insomnia, any grade (400 mg BID (n=4)) | TRAE Insomnia, grade 3-4 (400 mg BID (n=4)) | TRAE Leukopenia, grade 3-4 (400 mg BID (n=4)) | TRAE Nausea, any grade (400 mg BID (n=4)) | TRAE Nausea, grade 3-4 (400 mg BID (n=4)) | TRAE Neuritis, any grade (400 mg BID (n=4)) | TRAE Neuritis, grade 3-4 (400 mg BID (n=4)) | TRAE Occult blood, any grade (400 mg BID (n=4)) | TRAE Occult blood, grade 3-4 (400 mg BID (n=4)) | TRAE Oedema peripheral, any grade (400 mg BID (n=4)) | TRAE Oedema peripheral, grade 3-4 (400 mg BID (n=4)) | TRAE Onycholysis, any grade (400 mg BID (n=4)) | TRAE Onycholysis, grade 3-4 (400 mg BID (n=4)) | TRAE Oropharyngeal pain, any grade (400 mg BID (n=4)) | TRAE Oropharyngeal pain, grade 3-4 (400 mg BID (n=4)) | TRAE Paraesthesia, any grade (400 mg BID (n=4)) | TRAE Paraesthesia, grade 3-4 (400 mg BID (n=4)) | TRAE Proteinuria, any grade (400 mg BID (n=4)) | TRAE Proteinuria, grade 3-4 (400 mg BID (n=4)) | TRAE Pruritus, any grade (400 mg BID (n=4)) | TRAE Pruritus, grade 3-4 (400 mg BID (n=4)) | TRAE Rash maculo-papular, any grade (400 mg BID (n=4)) | TRAE Rash maculo-papular, grade 3-4 (400 mg BID (n=4)) | TRAE Sinus tachycardia, any grade (400 mg BID (n=4)) | TRAE Sinus tachycardia, grade 3-4 (400 mg BID (n=4)) | TRAE Skin fissures, any grade (400 mg BID (n=4)) | TRAE Skin fissures, grade 3-4 (400 mg BID (n=4)) | TRAE Supraventricular extrasystoles, any grade (400 mg BID (n=4)) | TRAE Supraventricular extrasystoles, grade 3-4 (400 mg BID (n=4)) | TRAE Upper respiratory tract infection, any grade (400 mg BID (n=4)) | TRAE Upper respiratory tract infection, grade 3-4 (400 mg BID (n=4)) | TRAE Urinary retention, any grade (400 mg BID (n=4)) | TRAE Urinary retention, grade 3-4 (400 mg BID (n=4)) | TRAE Urinary tract infection, any grade (400 mg BID (n=4)) | TRAE Urinary tract infection, grade 3-4 (400 mg BID (n=4)) | TRAE Ventricular arrhythmia, any grade (400 mg BID (n=4)) | TRAE Ventricular arrhythmia, grade 3-4 (400 mg BID (n=4)) | TRAE Ventricular extrasystoles, any grade (400 mg BID (n=4)) | TRAE Ventricular extrasystoles, grade 3-4 (400 mg BID (n=4)) | TRAE Vomiting, grade 3-4 (400 mg BID (n=4)) | TRAE Weight loss, any grade (400 mg BID (n=4)) | TRAE Weight loss, grade 3-4 (400 mg BID (n=4)) | TRAE Accessory nerve disorder, any grade (450 mg QD (n=12)) | TRAE Accessory nerve disorder, grade 3-4 (450 mg QD (n=12)) | TRAE Activated partial thromboplastin time prolonged, grade 3-4 (450 mg QD (n=12)) | TRAE Anaesthesia oral, any grade (450 mg QD (n=12)) | TRAE Anaesthesia oral, grade 3-4 (450 mg QD (n=12)) | TRAE Arrhythmia, any grade (450 mg QD (n=12)) | TRAE Arrhythmia, grade 3-4 (450 mg QD (n=12)) | TRAE Arthralgia, grade 3-4 (450 mg QD (n=12)) | TRAE Asthenia, grade 3-4 (450 mg QD (n=12)) | TRAE Blister, grade 3-4 (450 mg QD (n=12)) | TRAE Chest discomfort, any grade (450 mg QD (n=12)) | TRAE Chest discomfort, grade 3-4 (450 mg QD (n=12)) | TRAE Chronic kidney disease, grade 3-4 (450 mg QD (n=12)) | TRAE Constipation, grade 3-4 (450 mg QD (n=12)) | TRAE Cough, any grade (450 mg QD (n=12)) | TRAE Cough, grade 3-4 (450 mg QD (n=12)) | TRAE Decreased Ccr, grade 3-4 (450 mg QD (n=12)) | TRAE Decreased appetite, grade 3-4 (450 mg QD (n=12)) | TRAE Diarrhoea, grade 3-4 (450 mg QD (n=12)) | TRAE Dizziness, any grade (450 mg QD (n=12)) | TRAE Dizziness, grade 3-4 (450 mg QD (n=12)) | TRAE Dry mouth, grade 3-4 (450 mg QD (n=12)) | TRAE Dysgeusia, grade 3-4 (450 mg QD (n=12)) | TRAE Dyskinesia, any grade (450 mg QD (n=12)) | TRAE Dyskinesia, grade 3-4 (450 mg QD (n=12)) | TRAE Dysphonia, any grade (450 mg QD (n=12)) | TRAE Dysphonia, grade 3-4 (450 mg QD (n=12)) | TRAE Dyspnoea, any grade (450 mg QD (n=12)) | TRAE Dyspnoea, grade 3-4 (450 mg QD (n=12)) | TRAE Electrocardiogram QT prolonged, any grade (450 mg QD (n=12)) | TRAE Electrocardiogram QT prolonged, grade 3-4 (450 mg QD (n=12)) | TRAE Elevated ALT, grade 3-4 (450 mg QD (n=12)) | TRAE Elevated AST, grade 3-4 (450 mg QD (n=12)) | TRAE Elevated D dimer, any grade (450 mg QD (n=12)) | TRAE Elevated D dimer, grade 3-4 (450 mg QD (n=12)) | TRAE Elevated GGT, any grade (450 mg QD (n=12)) | TRAE Elevated GGT, grade 3-4 (450 mg QD (n=12)) | TRAE Elevated LDH, any grade (450 mg QD (n=12)) | TRAE Elevated LDH, grade 3-4 (450 mg QD (n=12)) | TRAE Elevated alpha-HBDH, any grade (450 mg QD (n=12)) | TRAE Elevated alpha-HBDH, grade 3-4 (450 mg QD (n=12)) | TRAE Elevated bilirubin, any grade (450 mg QD (n=12)) | TRAE Elevated bilirubin, grade 3-4 (450 mg QD (n=12)) | TRAE Elevated blood creatinine, grade 3-4 (450 mg QD (n=12)) | TRAE Elevated creatine phosphokinase, grade 3-4 (450 mg QD (n=12)) | TRAE Elevated serum urea, any grade (450 mg QD (n=12)) | TRAE Elevated serum urea, grade 3-4 (450 mg QD (n=12)) | TRAE Elevated troponin, grade 3-4 (450 mg QD (n=12)) | TRAE Genital rash, any grade (450 mg QD (n=12)) | TRAE Genital rash, grade 3-4 (450 mg QD (n=12)) | TRAE Haematuria, grade 3-4 (450 mg QD (n=12)) | TRAE Headache, any grade (450 mg QD (n=12)) | TRAE Headache, grade 3-4 (450 mg QD (n=12))
1 (8.3) n (%): TRAE Activated partial thromboplastin time prolonged, any grade (450 mg QD (n=12)) | TRAE Anaemia, any grade (450 mg QD (n=12)) | TRAE Anaemia, grade 3-4 (450 mg QD (n=12)) | TRAE Arthralgia, any grade (450 mg QD (n=12)) | TRAE Blister, any grade (450 mg QD (n=12)) | TRAE Chronic kidney disease, any grade (450 mg QD (n=12)) | TRAE Diarrhoea, any grade (450 mg QD (n=12)) | TRAE Elevated creatine phosphokinase, any grade (450 mg QD (n=12)) | TRAE Elevated troponin, any grade (450 mg QD (n=12)) | TRAE Hyperhidrosis, any grade (450 mg QD (n=12))
3 (75.0) n (%): TRAE Elevated ALT, any grade (400 mg BID (n=4)) | TRAE Elevated AST, any grade (400 mg BID (n=4)) | TRAE PPE, grade 3-4 (400 mg BID (n=4))
1 (25.0) n (%): TRAE Elevated GGT, any grade (400 mg BID (n=4)) | TRAE Elevated LDH, any grade (400 mg BID (n=4)) | TRAE Elevated alpha-HBDH, any grade (400 mg BID (n=4)) | TRAE Elevated bilirubin, any grade (400 mg BID (n=4)) | TRAE Elevated blood creatinine, any grade (400 mg BID (n=4)) | TRAE Hyperlipidaemia, any grade (400 mg BID (n=4)) | TRAE Hypertension, any grade (400 mg BID (n=4)) | TRAE Leukopenia, any grade (400 mg BID (n=4)) | TRAE Thrombocytopenia, grade 3-4 (400 mg BID (n=4)) | TRAE Vomiting, any grade (400 mg BID (n=4))
3 (25.0) n (%): TRAE Dysgeusia, any grade (450 mg QD (n=12)) | TRAE Haematuria, any grade (450 mg QD (n=12))
2 (50.0) n (%): TRAE Elevated creatine phosphokinase, any grade (400 mg BID (n=4)) | TRAE Thrombocytopenia, any grade (400 mg BID (n=4))
4 (100.0) n (%): TRAE PPE, any grade (400 mg BID (n=4))
